Drawing on ChEMBL document CHEMBL4842347, “Structure-activity relationship and biochemical evaluation of novel fibroblast activation protein and prolyl endopeptidase inhibitors with α-ketoamide warheads” (Eur J Med Chem, 2021), this text covers Activity and IC50 for 35 compounds.

Assay [1] relates to HeLa. As to the kind of experiment: Cytotoxicity against human HeLa cells assessed as reduction in cell viability incubated for 72 hrs measured by […]-based colorimetric assay. Type of assay: functional.
Assay [2] deals with CCRF-CEM. As to the kind of experiment: Cytotoxicity against human CCRF-CEM cells assessed as reduction in cell viability incubated for 72 hrs measured by […]-based colorimetric assay. In kind it is functional.
Assay [3] relates to HepG2. The assay is described as follows: Cytotoxicity against human HepG2 cells assessed as reduction in cell viability incubated for 72 hrs measured by […]-based colorimetric assay. In kind it is functional.
The subject of assay [4] is HL-60. As to the kind of experiment: Cytotoxicity against human HL-60 cells assessed as reduction in cell viability incubated for 72 hrs measured by […]-based colorimetric assay. In kind it is functional.
Assay [5] has as its target Dipeptidyl peptidase 4 (Homo sapiens, UniProt P27487). The assay is described as follows: Inhibition of SF-tagged DPP4 (unknown origin) expressed in Drosophila S2 cells using fluorogenic substrate by spectrometric analysis. In kind it is cell-based.
A short description of assay [6]: Inhibition of PREP (unknown origin) using fluorogenic substrate by spectrometric assay. Also on record: species or system Homo sapiens.

Molecules are shown by their SMILES. Calls of active or inactive are those of the source. No cut-off for these calls is given here. Bounds are passed on as bounds.

Dipeptidyl peptidase 4, sequence (P27487 whole entry): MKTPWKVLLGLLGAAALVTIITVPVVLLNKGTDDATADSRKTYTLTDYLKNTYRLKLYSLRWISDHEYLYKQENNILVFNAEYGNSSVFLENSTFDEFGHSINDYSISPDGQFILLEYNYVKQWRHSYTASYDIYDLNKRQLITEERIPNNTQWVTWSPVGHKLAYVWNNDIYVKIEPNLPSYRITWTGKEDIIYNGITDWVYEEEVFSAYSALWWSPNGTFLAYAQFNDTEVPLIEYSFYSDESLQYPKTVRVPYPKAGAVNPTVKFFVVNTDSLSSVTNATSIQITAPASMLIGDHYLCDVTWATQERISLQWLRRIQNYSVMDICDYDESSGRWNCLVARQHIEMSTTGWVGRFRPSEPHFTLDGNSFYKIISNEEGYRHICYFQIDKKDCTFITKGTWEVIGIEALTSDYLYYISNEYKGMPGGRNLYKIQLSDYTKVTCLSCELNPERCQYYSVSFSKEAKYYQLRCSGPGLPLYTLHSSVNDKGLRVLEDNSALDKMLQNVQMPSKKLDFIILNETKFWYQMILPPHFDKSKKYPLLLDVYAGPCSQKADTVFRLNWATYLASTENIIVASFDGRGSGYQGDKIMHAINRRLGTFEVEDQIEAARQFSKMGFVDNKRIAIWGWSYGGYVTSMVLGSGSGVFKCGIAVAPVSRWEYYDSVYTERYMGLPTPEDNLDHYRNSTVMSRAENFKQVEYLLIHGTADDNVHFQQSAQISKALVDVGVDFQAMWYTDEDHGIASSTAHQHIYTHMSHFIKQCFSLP

As to `COC(=O)c1ccc(NC(=O)C(=O)[C@@H]2CCCN2C(=O)CNC(=O)c2ccnc3ccccc23)cc1`, the outcome in assay [1], in assay [2], in assay [3] and in assay [4] was inactive.

`COC(=O)[C@H](CC(C)C)NC(=O)CNC(=O)C(=O)[C@@H]1CCCN1C(=O)CNC(=O)c1ccnc2ccccc12`: the outcome in assay [1], in assay [2], in assay [3] and in assay [4] was inactive.

For the compound `O=CCNC(=O)CNC(=O)C(=O)[C@@H]1CCCN1C(=O)CNC(=O)c1ccnc2ccccc12`, the outcome in assay [1], in assay [2], in assay [3] and in assay [4] was inactive.

For the compound `CC(C)NC(=O)C(=O)[C@@H]1CCCN1C(=O)CNC(=O)c1ccnc2ccccc12`, the result in assay [1], in assay [2], in assay [3] and in assay [4] was inactive.

Turning to `O=C(NCc1ccc(F)cc1)C(=O)[C@@H]1CCCN1C(=O)CNC(=O)c1ccnc2ccccc12`, the result in assay [1], in assay [2], in assay [3] and in assay [4] was inactive. The IC50 in assay [5] was greater than 3000 nM; in assay [6], 0.26 nM.

Consider `O=C(NCC(=O)N1CCCC1)C(=O)[C@@H]1CCCN1C(=O)CNC(=O)c1ccnc2ccccc12`, for which the outcome in assay [1], in assay [2], in assay [3] and in assay [4] was inactive.

As for `COC(=O)CNC(=O)C(=O)[C@@H]1CCCN1C(=O)CNC(=O)c1ccnc2ccccc12`, the outcome in assay [1], in assay [2], in assay [3] and in assay [4] was inactive.

Regarding `CN(C)C(=O)CNC(=O)C(=O)[C@@H]1CCCN1C(=O)CNC(=O)c1ccnc2ccccc12`, the outcome in assay [1], in assay [2], in assay [3] and in assay [4] was inactive.

As for `O=C(NC1CC1)C(=O)[C@@H]1CCCN1C(=O)CNC(=O)c1ccnc2ccccc12`, the outcome in assay [1], in assay [2], in assay [3] and in assay [4] was inactive.

As for `CCCCCCNC(=O)CNC(=O)C(=O)[C@@H]1CCCN1C(=O)CNC(=O)c1ccnc2ccccc12`, the result in assay [1], in assay [2], in assay [3] and in assay [4] was inactive.

Regarding `N#C[C@@H]1CCCN1C(=O)CNC(=O)c1ccnc2ccccc12`, the IC50 in assay [5] was greater than 4000 nM; in assay [6], 320 nM.

With `CC(C)NC(=O)CNC(=O)C(=O)[C@@H]1CCCN1C(=O)CNC(=O)c1ccnc2ccccc12`, the result in assay [1], in assay [2], in assay [3] and in assay [4] was inactive.

Take `COC(=O)C(C)NC(=O)C(=O)[C@@H]1CCCN1C(=O)CNC(=O)c1ccnc2ccccc12` (mixture of isomers): the result in assay [1], in assay [2], in assay [3] and in assay [4] was inactive.

Regarding `COC(=O)CNC(=O)CNC(=O)C(=O)[C@@H]1CCCN1C(=O)CNC(=O)c1ccnc2ccccc12`, the result in assay [1], in assay [2], in assay [3] and in assay [4] was inactive.

As for `CCCCCNC(=O)C(=O)[C@@H]1CCCN1C(=O)CNC(=O)c1ccnc2ccccc12`, the result in assay [1], in assay [2], in assay [3] and in assay [4] was inactive. This compound gave an IC50 in assay [6] of 0.4 nM.

Turning to `O=C(NC1CCCCC1)C(=O)[C@@H]1CCCN1C(=O)CNC(=O)c1ccnc2ccccc12`, the outcome in assay [1], in assay [2], in assay [3] and in assay [4] was inactive.

In the case of `COC(=O)[C@H](CCCCN)NC(=O)CNC(=O)C(=O)[C@@H]1CCCN1C(=O)CNC(=O)c1ccnc2ccccc12`, the outcome in assay [1], in assay [2], in assay [3] and in assay [4] was inactive.

Take `O=C(NCCc1ccccc1)C(=O)[C@@H]1CCCN1C(=O)CNC(=O)c1ccnc2ccccc12`: the result in assay [1], in assay [2], in assay [3] and in assay [4] was inactive.

As for `CNC(=O)CNC(=O)C(=O)[C@@H]1CCCN1C(=O)CNC(=O)c1ccnc2ccccc12`, the outcome in assay [1], in assay [2], in assay [3] and in assay [4] was inactive.

For the compound `O=C(CNC(=O)C(=O)[C@@H]1CCCN1C(=O)CNC(=O)c1ccnc2ccccc12)NC1CC1`, the outcome in assay [1], in assay [2], in assay [3] and in assay [4] was inactive.

As for `CCOC(=O)CNC(=O)C(=O)[C@@H]1CCCN1C(=O)CNC(=O)c1ccnc2ccccc12`, the outcome in assay [1], in assay [2], in assay [3] and in assay [4] was inactive.

For `COC(=O)[C@H](CO)NC(=O)CNC(=O)C(=O)[C@@H]1CCCN1C(=O)CNC(=O)c1ccnc2ccccc12`, the result in assay [1], in assay [2], in assay [3] and in assay [4] was inactive.

In the case of `CC(C)(C)CNC(=O)C(=O)[C@@H]1CCCN1C(=O)CNC(=O)c1ccnc2ccccc12`, the outcome in assay [1], in assay [2], in assay [3] and in assay [4] was inactive.

In the case of `COC(=O)[C@H](CCC(N)=O)NC(=O)CNC(=O)C(=O)[C@@H]1CCCN1C(=O)CNC(=O)c1ccnc2ccccc12`, the result in assay [1], in assay [2], in assay [3] and in assay [4] was inactive.

Regarding `COC(=O)[C@H](CC(=O)OCc1ccccc1)NC(=O)CNC(=O)C(=O)[C@@H]1CCCN1C(=O)CNC(=O)c1ccnc2ccccc12`, the result in assay [1], in assay [2], in assay [3] and in assay [4] was inactive.

Compound `N#C[C@@H]1CC(F)(F)CN1C(=O)CNC(=O)c1ccnc2ccccc12` gave an IC50 in assay [6] of 310 nM.

For `O=C(NC(c1ccccc1)c1ccccc1)C(=O)[C@@H]1CCCN1C(=O)CNC(=O)c1ccnc2ccccc12`, the result in assay [1], in assay [2], in assay [3] and in assay [4] was inactive.

With `COc1ccc(CNC(=O)CNC(=O)C(=O)[C@@H]2CCCN2C(=O)CNC(=O)c2ccnc3ccccc23)cc1OC`, the result in assay [1], in assay [2], in assay [3] and in assay [4] was inactive.

As to `COC(=O)C(NC(=O)C(=O)[C@@H]1CCCN1C(=O)CNC(=O)c1ccnc2ccccc12)C(C)C` (stereo partly drawn), the result in assay [1], in assay [2], in assay [3] and in assay [4] was inactive.

Take `O=C(NC12CC3CC(CC(C3)C1)C2)C(=O)[C@@H]1CCCN1C(=O)CNC(=O)c1ccnc2ccccc12`: the outcome in assay [1], in assay [2], in assay [3] and in assay [4] was inactive.

For the compound `COc1ccc(NC(=O)C(=O)[C@@H]2CCCN2C(=O)CNC(=O)c2ccnc3ccccc23)cc1`, the outcome in assay [1], in assay [2], in assay [3] and in assay [4] was inactive.

`COc1ccc(CNC(=O)C(=O)[C@@H]2CCCN2C(=O)CNC(=O)c2ccnc3ccccc23)cc1`: the outcome in assay [1], in assay [2], in assay [3] and in assay [4] was inactive.

As to `O=C(CNC(=O)C(=O)[C@@H]1CCCN1C(=O)CNC(=O)c1ccnc2ccccc12)NCc1ccccc1`, the result in assay [1], in assay [2], in assay [3] and in assay [4] was inactive.

For the compound `COc1cccc(CNC(=O)C(=O)[C@@H]2CCCN2C(=O)CNC(=O)c2ccnc3ccccc23)c1`, the outcome in assay [1], in assay [2], in assay [3] and in assay [4] was inactive.

On to `COC(=O)[C@H](CCC(=O)NCc1ccccc1)NC(=O)CNC(=O)C(=O)[C@@H]1CCCN1C(=O)CNC(=O)c1ccnc2ccccc12`, for which the result in assay [1], in assay [2], in assay [3] and in assay [4] was inactive.
